According to US20120045816A1, “Novel Glycosylated Polypeptides” (Sialix, Inc., priority 2008, published 2012):

Legend:
[1] = tested on: affinity-purified chicken anti-Neu5Gc IgY; experiment: ELISA detection of Neu5Gc on Cetuximab and Panitumumab; format: binding; details: 1 μg antibody per well; FIG. 1A
From the text: Sialidase Treatment of Cet and Pan. […] Samples were used for ELISA or Western Blots.
ELISA samples were studied at least in triplicate. […] Samples were studied in triplicate.
ELISA We first did ELISA assays using an affinity-purified polyclonal chicken anti-Neu5Gc antibody preparation that is highly mono-specific for Neu5Gc^5, alongside a non-reactive control IgY.

[2] = Sialic acid quantity (DMB-HPLC); format: physicochemical
Protocol: DMB-HPLC. Samples were subjected to base treatment with 0.1 M NaOH (final) at 37° C. for 30 min to remove O-acetyl esters, and the sialic acids were released by acid hydrolysis with 2 M acetic acid (final), at 80° C. for 3 hours. Samples were passed through Microcon-10 columns (20 min, 10000×g; Millipore), derivatized with 1,2-diamino-4,5-methyl dioxybenzene (DMB), and analyzed by HPLC as described^9 in Hara et al., 1986, J. Chromatography 377:111-119. Measured values of non acid-treated controls (free sialic acids) were subtracted.
(§1) Sialic Acid Quantity. The levels of Sialic acids on the therapeutic antibodies (TAbs) Cet and Pan were determined. […] Cet and Pan (1 μg each) were separated by SDS-PAGE and Coomassie stained or blotted (see FIG. 1B). […] The absorbance was measured at 405 nm.

[3] = tested on: anti-Neu5Gc antibodies in human serum; experiment: CIC-C1q binding assay, immune complex formation in whole human serum; details: 40 μg antibody in 100 μl serum, FIG. 1F
Protocol: CIC-C1q Binding Assay. […] 1:50 dilutions of the mix were applied to human C1 q coated ELISA wells, and incubated for 1 h at 25° C. […] The absorbance was measured at 405 nm. Samples were studied in triplicate.
as §1

[4] = tested on: anti-Neu5Gc antibodies from whole human sera; experiment: Direct binding of anti-Neu5Gc antibodies from whole human sera to Fab fragments (ELISA); details: serum S34; Fab fragments 1 μg/well; FIG. 2C
Protocol: Direct binding of anti-Neu5Gc antibodies from whole human sera to the glycosylated polypeptides, Cet and Pan, was evaluated. […] Fab fragments (1 μg/well) were used as target molecules in ELISA. Sialic acid specific binding was determined with sodium metaperiodate treatment. Wells were then blocked and incubated with human sera (S30 and S34 with low and high anti-Neu5Gc IgG titers, respectively, from Ref. 7).

Human 293T cells = experiment: Reduction of Neu5Gc contamination in 293T human kidney cells by Neu5Ac chase; format: cell-based; details: 5 mM Neu5Ac chase after 5 mM Neu5Gc for 3 days; HPLC; FIG. 3A-B
Protocol: Reduction of Neu5Gc Contamination in Glycosylated Polypeptides in 293T Human Kidney Cells. 293T human kidney cells were grown in DME supplemented with 10% FCS. Cells were lifted from culture plate using 20 mM EDTA in PBS and allowed to grow to 50% confluence. Buffered 100 mM Neu5Gc was added to the culture in duplicate at a final 5 mM concentration, and the cells were grown in this supplemented media for 3 days. At the end of this Neu5Gc pulse, the cells were once again lifted using 20 mM EDTA in PBS, pelleted, washed once with PBS to remove any excess Neu5Gc and then suspended in 30 ml of growth medium. Five ml of this cell suspension was added to each of […]. The last aliquot of cell suspension, time “0”, was immediately harvested by pelleting the cells, washing once with PBS, followed by suspending the cells in 1 ml of PBS and transferring to a 1.5 ml microcentrifuge tube. The cells were re-pelleted and frozen until all time points were collected. […]
Free Neu5Ac in Human 293T Cell Culture Medium Reduces Neu5Gc Contamination. […] Cells were harvested as described above, and the Neu5Gc and Neu5Ac content of both the ethanol soluble (FIG. 3A) and ethanol precipitable proteins (FIG. 3B) was analyzed by HPLC. […]

CHO cells = experiment: Reduction of Neu5Gc contamination in CHO cells by feeding Neu5Ac; format: cell-based, Chinese Hamster; details: 5 mM Neu5Ac in medium; DMB-HPLC and Western blot; FIG. 3C-E
Protocol: Reduction of Neu5Gc Contamination in Glycosylated polypeptides in CHO Cells. A similar approach was taken to CHO cells stably expressing a Siglec-Fc protein in the medium, except that the Neu5Gc pulse was omitted, and the secreted glycoproteins were captured on Protein-A Sepharose beads. The cells were also processed similarly, except that total cell membranes were pelleted by centrifugation. The Sias content of the secreted proteins and cell membranes was determined by acid hydrolysis, DMB derivatization and HPLC. The cell membranes were also studied for NueSGc content by Western-blotting with the chicken anti-Neu5Gc IgY, as described above.
Free Neu5Ac in Non-Human CHO Cell Culture Medium Reduces Neu5Gc Contamination. However, many recombinant glycosylated polypeptides are currently produced in non-human cells, e.g., Chinese Hamster Ovary (CHO) cell lines. Glycosylated polypeptide produced in CHO cells carry small amounts of Neu5Gc^19,5. […] The individually collected media was centrifuged to remove cell debris and adjusted to 5 mM Tris-HCl pH 8. The fusion protein was purified using Protein-A Sepharose. Sialic acid content was determined by DMB-HPLC analysis (FIG. 3C). The area under each peak was obtained and the percent of Neu5Gc in each sample was determined relative to Neu5Ac. Total cell membranes from the same CHO cells were prepared and used for DMB-HPLC analysis (FIG. 3D). […]

Row | Compound | Bound Neu5Gc detected by chicken anti-Neu5Gc IgY (ELISA) [1] | Share of Neu5Gc in the Sias [2] | Sias carried by the antibody [2] | Immune complex formation, low titer human serum ([3]; serum S30) | Immune complex formation, human serum with high levels of anti-Neu5Gc antibodies ([3]; serum S34) | Mild periodate sensitive binding of serum IgG to Fab fragments, high anti-Neu5Gc titer serum [4] | Effect on Neu5Gc content of cells preloaded with Neu5Gc (Human 293T cells) | Effect on Neu5Gc of membrane glycoproteins and a secreted recombinant protein (CHO cells)
1 | Panitumumab: fully human antibody against the EGF receptor produced in Chinese Hamster Ovary cells | not on Panitumumab | < 0.1% | 0.22 mol/mol | no detectable immune complex formation | no detectable immune complex formation | not to those of Panitumumab |  | 
2 | CC(=O)N[C@H]1[C@H]([C@H](O)[C@H](O)CO)OC(O)(C(=O)O)C[C@@H]1O (some centres unmarked) [Neu5Ac, N-acetylneuraminic acid] |  |  |  |  |  |  | more rapid disappearance of ethanol-precipitable (glycosidically-bound) Neu5Gc | reduces Neu5Gc in CHO cells
